Experiments:
[1] = target: T1, human recombinant kinase full-length AKT1 E17K (Homo sapiens, UniProt P31749, E17K); assay: AKT1 E17K kinase assay (TR-FRET, Lance); assay type: biochemical; conditions: 0.6 nM AKT1 E17K, 50 nM Ulight-CREBtide, either 50 μM ATP or 2 mM ATP, 60 min at RT
T1 construct: Purified human recombinant kinase full-length AKT1 E17K was expressed in insect cells; made in house; host or cells: insect cells
Summary of the method: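 IC50 came from a 10-point, 4-parameter fit of the 665/620 TR-FRET ratio read with Eu-anti-phospho-CREB (Ser133). Reaction at RT for 60 min after 15 min compound preincubation, using 0.6 nM PDPK1-activated full-length AKT1 E17K (insect-cell), 50 nM Ulight-CREBtide, ATP at 50 μM or 2 mM, HEPES pH 7.5, 1% DMSO.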

[2] = target: T2, human recombinant kinase full-length wildtype AKT1 (Homo sapiens, UniProt P31749); assay: AKT1 kinase assay (wildtype, TR-FRET, Lance); assay type: biochemical; conditions: 0.6 nM wildtype AKT1, 50 nM Ulight-CREBtide, either 50 μM ATP or 2 mM ATP, 60 min at RT
T2 construct: Purified human recombinant kinase full-length wildtype AKT1 was expressed in insect cells; made in house; host or cells: insect cells
T2 sequence (P31749 whole entry): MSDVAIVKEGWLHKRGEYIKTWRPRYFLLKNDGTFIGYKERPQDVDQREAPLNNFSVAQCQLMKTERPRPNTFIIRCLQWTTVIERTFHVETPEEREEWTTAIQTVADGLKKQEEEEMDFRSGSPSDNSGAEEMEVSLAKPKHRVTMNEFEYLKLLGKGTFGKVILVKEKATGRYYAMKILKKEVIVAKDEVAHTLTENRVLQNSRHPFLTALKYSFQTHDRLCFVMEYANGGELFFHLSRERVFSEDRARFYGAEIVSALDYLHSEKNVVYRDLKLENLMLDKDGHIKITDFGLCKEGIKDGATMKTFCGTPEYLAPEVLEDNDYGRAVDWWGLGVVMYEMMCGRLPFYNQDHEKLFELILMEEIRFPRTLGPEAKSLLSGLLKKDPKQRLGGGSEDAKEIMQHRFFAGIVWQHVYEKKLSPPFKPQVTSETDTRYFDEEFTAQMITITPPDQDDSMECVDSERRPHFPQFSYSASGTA
Summary of the method: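 TR-FRET 665/620 ratio quantified phospho-CREBtide formed by PDPK1-activated full-length human AKT1 (0.6 nM, insect-cell-derived) over 60 min at RT with 50 nM ULight-CREBtide and either 50 μM or 2 mM ATP. Compounds were preincubated 15 min with enzyme; IC50 came from 4-parameter fits of 10-point duplicates.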

T1 sequence (P31749 whole entry E17K): as the sequence (P31749 whole entry) above, with E17K counted along it

| Compound | IC50 [1] | IC50 [2] |
| --- | --- | --- |
| Cn1nccc1-c1ccc2nc(-c3cccnc3N)n(-c3ccc(NC(=O)[C@H]4CC[C@H](C(=O)O)CC4)nc3)c2n1 [Compound I-116, (1r,4r)-4-((5-(2-(2-aminopyridin-3-yl)-5-(1-methyl-1H-pyrazol-5-yl)-3H-imidazo[4,5-b]pyridin-3-yl)pyridin-2-yl)carbamoyl)cyclohexane-1-carboxylic acid] | 500 to 2000 nM | < 20 µM |
| CN(Cc1ccc(-n2c(-c3cccnc3N)nc3ccc(-c4ccccc4)nc32)cc1)[C@H]1CC[C@H](C(N)=O)CC1 [Compound I-187, trans-4-((4-(2-(2-aminopyridin-3-yl)-5-phenyl-3H-imidazo[4,5-b]pyridin-3-yl)benzyl)(methyl)amino)cyclohexane-1-carboxamide] | ≥ 2000 nM | < 20 µM |
| Nc1ncccc1-c1nc2ccc(-c3ccccc3)nc2n1-c1c(F)cc(C2CN(C[C@H]3CC[C@H](C(=O)O)CC3)C2)cc1F [Compound I-208] | 500 to 2000 nM | < 20 µM |
| Nc1ncccc1-c1nc2ccc(-c3ccccc3)nc2n1-c1ccc(NC2CCC(C(=O)O)C2)nc1 (stereo not drawn) [Compound I-13, 3-((5-(2-(2-aminopyridin-3-yl)-5-phenyl-3H-imidazo[4,5-b]pyridin-3-yl)pyridin-2-yl)amino)cyclopentane-1-carboxylic acid] | ≥ 2000 nM | < 20 µM |
| Nc1ncccc1-c1nc2ccc(-c3ccccc3)nc2n1-c1ccc([C@H]2CCN(C[C@H]3CC[C@H](C(=O)O)CC3)C2)cc1 (single isomer, unassigned) [Compound I-232] | 500 to 2000 nM | < 20 µM |
| Cc1nc(NC[C@@H]2CC[C@H](C(=O)O)C2)ccc1-n1c(-c2cccnc2N)nc2ccc(-c3ccccc3)nc21 [Compound I-226] | 500 to 2000 nM | < 20 µM |
| Nc1ncccc1-c1nc2ccc(-c3ccccc3)nc2n1-c1ccc(CNC2CCC(C(=O)O)CC2)cc1 (stereo not drawn) [Compound I-31, 4-((4-(2-(2-aminopyridin-3-yl)-5-phenyl-3H-imidazo[4,5-b]pyridin-3-yl)benzyl)amino)cyclohexane-1-carboxylic acid] | 500 to 2000 nM | < 20 µM |
| Nc1ncccc1-c1nc2ccc(-c3ccccc3)nc2n1-c1ccc(C2CN(C[C@H]3CC[C@@H](C(=O)O)CC3)C2)cc1 [Compound I-36, (1s,4s)-4-((3-(4-(2-(2-aminopyridin-3-yl)-5-phenyl-3H-imidazo[4,5-b]pyridin-3-yl)phenyl)azetidin-1-yl)methyl)cyclohexane-1-carboxylic acid] | 500 to 2000 nM | < 20 µM |
| Nc1ncccc1-c1nc2ccc(-c3ccccc3)nc2n1-c1ccc(NC(=O)C2CC3C(C2)C3C(=O)O)nc1 (stereo not drawn) [Compound I-48, 3-((5-(2-(2-aminopyridin-3-yl)-5-phenyl-3H-imidazo[4,5-b]pyridin-3-yl)pyridin-2-yl)carbamoyl)bicyclo[3.1.0]hexane-6-carboxylic acid] | < 500 nM | < 20 µM |
| Nc1ncccc1-c1nc2ccc(-c3ccccc3)nc2n1-c1ccc(NC(=O)N2CCC(C(=O)O)CC2)cc1 [Compound I-53, 1-[[4-[2-(2-amino-3-pyridyl)-5-phenyl-imidazo[4,5-b]pyridin-3-yl]phenyl]carbamoyl]piperidine-4-carboxylic acid] | < 500 nM | < 20 µM |
| Nc1ncccc1-c1nc2ccc(-c3ccccc3)nc2n1-c1ccc(C(=O)N[C@H]2CC[C@H](C(=O)O)CC2)cc1 [Compound I-16, (1r,4r)-4-(4-(2-(2-aminopyridin-3-yl)-5-phenyl-3H-imidazo[4,5-b]pyridin-3-yl)benzamido)cyclohexane-1-carboxylic acid] | < 500 nM | < 20 µM |
| Nc1ncccc1-c1nc2ccc(-c3ccccc3)nc2n1-c1ccc(C2CCN(C[C@H]3CC[C@H](C(=O)O)CC3)CC2)cc1 [Compound I-190] | 500 to 2000 nM | < 20 µM |
| NC(=O)C1CCC(CN2CC(c3ccc(-n4c(-c5cccnc5N)nc5ccc(-c6ccccc6)nc54)cc3)C2)CC1 (stereo not drawn) [Compound I-140, 4-((3-(4-(2-(2-aminopyridin-3-yl)-5-phenyl-3H-imidazo[4,5-b]pyridin-3-yl)phenyl)azetidin-1-yl)methyl)cyclohexane-1-carboxamide] | 500 to 2000 nM | < 20 µM |
| Nc1ncccc1-c1nc2ccc(C3CCCCC3)nc2n1-c1ccc(NC(=O)[C@H]2CC[C@H](C(=O)O)CC2)nc1 [Compound I-119, (1r,4r)-4-((5-(2-(2-aminopyridin-3-yl)-5-cyclohexyl-3H-imidazo[4,5-b]pyridin-3-yl)pyridin-2-yl)carbamoyl)cyclohexane-1-carboxylic acid] | 500 to 2000 nM | < 20 µM |
| Nc1ncccc1-c1nc2ccc(-c3ccccc3)nc2n1-c1ccc(C2CN(C[C@@H]3CC[C@H](C(=O)O)C3)C2)cc1 [Compound I-58, (1S,3R)-3-((3-(4-(2-(2-aminopyridin-3-yl)-5-phenyl-3H-imidazo[4,5-b]pyridin-3-yl)phenyl)azetidin-1-yl)methyl)cyclopentane-1-carboxylic acid] | < 500 nM | < 20 µM |
| C[C@]1(C(=O)O)CC[C@@H](CN2CC(c3ccc(-n4c(-c5cccnc5N)nc5ccc(-c6ccccc6)nc54)cc3)C2)CC1 [Compound I-75, (1s,4s)-4-((3-(4-(2-(2-aminopyridin-3-yl)-5-phenyl-311-imidazo[4,5-b]pyridin-3-yl)phenyl)azetidin-1-yl)methyl)-1-methylcyclohexane-1-carboxylic acid] | < 500 nM | < 20 µM |
| CC(C(=O)O)C1CCN(Cc2ccc(-n3c(-c4cccnc4N)nc4ccc(-c5ccccc5)nc43)cc2)CC1 (stereo not drawn) [Compound I-98, 2-(1-(4-(2-(2-aminopyridin-3-yl)-5-phenyl-3H-imidazo[4,5-b]pyridin-3-yl)benzyl)piperidin-4-yl)propanoic acid] | ≥ 2000 nM | < 20 µM |
| Cc1c(-n2c(-c3cccnc3N)nc3ccc(-c4ccccc4)nc32)ccc(NC(=O)[C@H]2CC[C@H](C(=O)O)CC2)c1F [Compound I-103, (1r,4r)-4-((4-(2-(2-aminopyridin-3-yl)-5-phenyl-3H-imidazo[4,5-b]pyridin-3-yl)-2-fluoro-3-methylphenyl)carbamoyl)cyclohexane-1-carboxylic acid] | ≥ 2000 nM | < 20 µM |
| Cc1nc(NC(=O)C2CCC(C(=O)O)C2)ccc1-n1c(-c2cccnc2N)nc2ccc(-c3ccccc3)nc21 (stereo not drawn) [Compound I-129, 3-((5-(2-(2-aminopyridin-3-yl)-5-phenyl-3H-imidazo[4,5-b]pyridin-3-yl)-6-methylpyridin-2-yl)carbamoyl)cyclopentane-1-carboxylic acid] | 500 to 2000 nM | < 20 µM |
| Nc1ncccc1-c1nc2cc(-c3ccccc3)cnc2n1-c1ccc(C2CN(C[C@H]3CC[C@H](C(=O)O)CC3)C2)cc1 [Compound I-65, (1r,4r)-4-((3-(4-(2-(2-aminopyridin-3-yl)-6-phenyl-3H-imidazo[4,5-b]pyridin-3-yl)phenyl)azetidin-1-yl)methyl)cyclohexane-1-carboxylic acid] | ≥ 2000 nM | < 20 µM |
| Cc1nc(NC(=O)C2CCC(C(=O)O)CC2)ccc1-n1c(-c2cccnc2N)nc2ccc(-c3ccccc3)nc21 (stereo not drawn) [Compound I-108, 4-((5-(2-(2-aminopyridin-3-yl)-5-phenyl-3H-imidazo[4,5-b]pyridin-3-yl)-6-methylpyridin-2-yl)carbamoyl)cyclohexane-1-carboxylic acid] | 500 to 2000 nM | < 20 µM |
| Nc1ncccc1-c1nc2ccc(-c3ccccc3)nc2n1-c1ccc(C(=O)N2CCCC(C(=O)O)C2)cc1 (stereo not drawn) [Compound I-21, 1-(4-(2-(2-aminopyridin-3-yl)-5-phenyl-3H-imidazo[4,5-b]pyridin-3-yl)benzoyl)piperidine-3-carboxylic acid] | ≥ 2000 nM | < 20 µM |
| Nc1ncccc1-c1nc2ccc(-c3ccccc3)nc2n1-c1ccc(C2CN(C[C@@H]3CC[C@@H](C(=O)O)C3)C2)cc1 [Compound I-61, (1R,3R)-3-((3-(4-(2-(2-aminopyridin-3-yl)-5-phenyl-3H-imidazo[4,5-b]pyridin-3-yl)phenyl)azetidin-1-yl)methyl)cyclopentane-1-carboxylic acid] | < 500 nM | < 20 µM |
| Cc1cc(CN2CCC(C(C)(C)C(=O)O)C2)ccc1-n1c(-c2cccnc2N)nc2ccc(-c3ccccc3)nc21 (stereo not drawn) [Compound I-180] | ≥ 2000 nM | < 20 µM |
| Nc1ncccc1-c1nc2ccc(-c3ccccn3)cc2n1-c1ccc(C2CN(C[C@H]3CC[C@H](C(=O)O)CC3)C2)cc1 [Compound I-68, (1r,4r)-4-((3-(4-(2-(2-aminopyridin-3-yl)-6-(pyridin-2-yl)-1H-benzo[d]imidazol-1-yl)phenyl)azetidin-1-yl)methyl)cyclohexane-1-carboxylic acid] | ≥ 2000 nM | < 20 µM |
| CC1(C)C[C@H](CN2CC(c3ccc(-n4c(-c5cccnc5N)nc5ccc(-c6ccccc6)nc54)cc3)C2)CC[C@H]1C(=O)O [Compound I-71, (1R,4R)-4-((3-(4-(2-(2-aminopyridin-3-yl)-5-phenyl-3H-imidazo[4,5-b]pyridin-3-yl)phenyl)azetidin-1-yl)methyl)-2,2-dimethylcyclohexane-1-carboxylic acid] | < 500 nM | < 20 µM |
| Cc1nc(CN(C)[C@H]2CC[C@H](C(=O)O)CC2)ccc1-n1c(-c2cccnc2N)nc2ccc(-c3ccccc3)nc21 [Compound I-183] | ≥ 2000 nM | < 20 µM |
